Measurements as given in article PMC3552814, “Elimination Rates of Dioxin Congeners in Former Chlorophenol Workers from Midland, Michigan” (Environmental Health Perspectives, 2012).
Where two headings read alike, the source gives them in different places.

Columns and labels:
[1] = Elimination half-lives from serial serum samples, first-order one-compartment model; type: in vivo; details: human, serum (lipid-adjusted), other: occupational exposure, 56 participants
From the text: Elimination rates. Changes in measured concentrations of persistent compounds such as PCDDs and PCDFs reflect not only intrinsic elimination rates but also any ongoing intakes of the compounds and changes in the volume of distribution, in this case, the volume of body lipids ([Bartell 2012]; [Ritter et al. 2009], [2011]). If current body concentrations are high relative to steady-state concentrations associated with current background intake rates, apparent elimination rates will approximate intrinsic elimination rates ([Bartell 2012]; [van der Molen et al. 1998]). If, on the other hand, background intakes are high compared with current body concentrations, the estimated apparent elimination rate will be lower than the intrinsic rates. Robust data regarding ongoing congener intake rates were not available, so the elimination rates were first calculated based on net rate of change of the congeners, which reflects both intrinsic elimination rates and unmeasured intake rates, termed “apparent” elimination rates.
We calculated apparent elimination rates in two ways: based on changes in concentration, or based on changes in estimated body amounts. For the former approach, concentrations of congener i in 2005 and 2010 (Ci,2005 and Ci,2010, respectively) and time between sampling dates (Δt), were used to estimate the elimination rate (ki):
Concentrations of lipophilic compounds may change in response to changes in the volume of distribution (increase or decrease in amount of body fat), even in the absence of any elimination or additional exposure ([Charlier et al. 2002]; [Chevrier et al. 2000]; [Hue et al. 2006]; [Imbeault et al. 2001]; [Pelletier et al. 2002]; [Walford et al. 1999]). Thus, we also estimated the rate of change in estimated whole body mass of each congener. For the approach based on changes in estimated mass of dioxins in the body, the congener concentrations in 2005 and 2010 were replaced by the estimated amounts, A, of congener i in the body:
where PBF is percent body fat estimated using an age-, sex-, and body mass index (BMI)-specific formula, which has been validated in adults over a range of ages including those of the participants in this study ([Deurenberg et al. 1991]), BW is body weight in kilograms, and Ci is the serum lipid–adjusted concentration of congener i. This approach assumes that the compound is distributed solely in body lipid. The resulting amount, Ai, calculated for each sampling time and congener was used in Equation 1 in place of concentration for calculating the apparent whole-body mass-based elimination rate.
Elimination half-lives (t1/2) corresponding to the estimated elimination rates, (k) were calculated for some comparisons with previous literature:
Inclusion of plausible background exposures. […] Changes in concentration or estimated mass of compound in the body reflect the net effect of both elimination and any ongoing exposures between sampling time points. Under a first-order model, the amount of compound in the body in 2010 (A2010) is a function of both the intrinsic elimination rate, kint, and the ongoing exposure rate between sampling time points:
where D is the yearly dose rate in nanograms per year, and A2005 is the starting amount in 2005. As described by [Ritter et al. (2011)], intrinsic elimination rates can be estimated if ongoing exposure levels are known or can be estimated.

[2] = cited from earlier work; for Half-life of elimination, Rohde et al. 1999 (mean) / Half-life of elimination, Flesch-Janys et al. 1996 (median): from change in concentration; for Half-life of elimination, Rohde et al. 1999 (mean): n = 6, ages 41–73 years, ref Rohde et al. 1999; for Half-life of elimination, Flesch-Janys et al. 1996 (median): n = 26 to 48, mean age 48.7 years at first sampling, ref Flesch-Janys et al. 1996
[3] = Serum lipid-adjusted dioxin congener concentrations in former chlorophenol workers, repeated blood sampling 2004–2005 and 2010; type: in vivo, human; details: for Mean percent change: change in concentration from 2004–2005 to 2010; for Concentration 2004–2005, Mean ± SD / Concentration 2010, Mean ± SD: serum, 56 Midland study participants
From the text: Participant selection. The selection strategy called for drawing a stratified random sample of workers included in the previous 2004–2005 blood draw. […] We used the 95th percentile of age-specific U.S. population concentrations for each congener identified in the National Health and Nutrition Examination Survey (NHANES; [Centers for Disease Control and Prevention 2009]) to define the upper ends of the background ranges. Nine strata were formed based jointly on previous serum levels of TCDD (high, > 50 ppt; moderate, 10–50 ppt; and background, < 10 ppt), representing workers in predominantly TCP processes, and OCDD (high, > 5,000 ppt; moderate, 1,000–5,000 ppt; and background, < 1,000 ppt), representing those with experience in PCP processes. We attempted to enroll participants representing each of these strata. Invitations to participate were sent to our target sample of 72 workers who were selected based on these congener concentration criteria.
Questionnaire and data collection methods. We conducted the serum analyses in 2010 using the same protocol, procedures, and laboratory as in the 2004–2005 blood draw ([Collins et al. 2006]). The serum samples were tested for 7 polychlorinated dibenzo-p-dioxins (PCDDs), 10 polychlorinated dibenzofurans (PCDFs), and 15 polychlorinated biphenyls (PCBs). […] The study was conducted pursuant to approval and oversight by the Dow Human Subjects Review Board in Midland, Michigan. All study participants gave informed consent.
On the day of examination in the fall of 2010, participants donated blood and completed the same questionnaire originally administered during the 2004–2005 sampling effort ([Collins et al. 2006]). The questionnaire addressed dietary and smoking habits, work history, and recent changes in weight. Height, weight, and blood pressure were also measured. Diagnosis of chloracne during occupational exposure was extracted from workplace medical records; the criteria for chloracne diagnosis were defined previously by [Bond et al. (1990)].

[4] = parameters: method as in Patterson et al. 2009; details: persons ≥ 60 years of age, ref Patterson et al. 2009, cited from earlier work; for NHANES (2003–2004) P95: 95th percentile; for NHANES (2003–2004) P50: 50th percentile, LODs variable
[5] = parameters: method as in van den Berg et al. 2006; details: WHO toxic equivalency factor; ref van den Berg et al. 2006; cited from earlier work
[6] = based on change in estimated mass of the congener in the body, read-out: Elimination half-lives [median (P25–P75)], Apparent, mass based (converted)
[7] = based on change in serum lipid concentration, read-out: Elimination half-lives [median (P25–P75)], Apparent, concentration based (converted)
[8] = change in body mass after accounting for plausible background intake (Table 3), read-out: Elimination half-lives [median (P25–P75)], Estimated intrinsic (converted)

SMILES | half-life [1, 6] [days] | half-life [1, 7] [days] | half-life [1, 8] [days] | Half-life of elimination, Rohde et al. 1999 (mean) [2] [years] | Half-life of elimination, Flesch-Janys et al. 1996 (median) [2] [years] | Mean percent change [3] | Concentration 2004–2005, Mean ± SD [3] [pg/g lipid] | Concentration 2010, Mean ± SD [3] [pg/g lipid] | NHANES (2003–2004) P95 [4] | TEF [5] | NHANES (2003–2004) P50 [4] [pg/g lipid] | Median concentration at first sampling time point ([2]; ref Flesch-Janys et al. (1996)) [pg/g lipid] | 2004–2005 median concentration ([3]; present study) [pg/g lipid]
Clc1cc2c(cc1Cl)Oc1c(Cl)c(Cl)c(Cl)c(Cl)c1O2 [Congener 14HxCDD, 1,2,3,4,7,8-hexachlorodibenzo-p-dioxin] | 3000 | 2960 | 2560 | 13.9 | 8.4 | –34% | 16.0 ± 11.9 | 10.5 ± 7.9 | 15.1 pg/g lipid | 0.1 |  |  | 
Clc1cc2c(c(Cl)c1Cl)Oc1cc(Cl)c(Cl)c(Cl)c1O2 [Congener 16HxCDD, 1,2,3,6,7,8-hexachlorodibenzo-p-dioxin] | 4020 | 3690 | 3290 | 11.6 | 13.1 | –31% | 136.6 ± 99.9 | 94.3 ± 70.8 | 104 pg/g lipid | 0.1 | 47.3 |  | 
Clc1cc2c(c(Cl)c1Cl)Oc1c(cc(Cl)c(Cl)c1Cl)O2 [Congener 19HxCDD, 1,2,3,7,8,9-hexachlorodibenzo-p-dioxin] | 2480 | 2260 | 2300 | 7.7 | 4.9 | –42% | 19.4 ± 14.5 | 11.3 ± 9.8 | 16.2 pg/g lipid | 0.1 |  |  | 
Clc1cc2c(c(Cl)c1Cl)Oc1c(Cl)c(Cl)c(Cl)c(Cl)c1O2 [HpCDD, 1,2,3,4,7,8,9-heptachlorodibenzo-p-dioxin] | 2780 | 2560 | 2450 | 4.3 | 3.7 | –46% | 159.9 ± 161.8 | 87.1 ± 83.3 |  | 0.01 |  | 641 | 88.6
Clc1c(Cl)c(Cl)c2c(c1Cl)Oc1c(Cl)c(Cl)c(Cl)c(Cl)c1O2 [OCDD, octachlorodibenzo-p-dioxin] | 3030 | 2850 | 2670 | 8.7 | 6.7 | –41% | 1919.6 ± 2121.0 | 1124.7 ± 1232.0 | 1,180 pg/g lipid | 0.0003 | 370 |  | 
Clc1cccc2c1Oc1c(Cl)c(Cl)c(Cl)c(Cl)c1O2 [PeCDD, pentachlorodibenzo-p-dioxin] | 4240 | 3910 | 3910 | 13.9 | 15.7 | –28% | 19.7 ± 11.3 | 14.2 ± 8.6 | 17.7 pg/g lipid | 1 | 8.0 |  | 
Clc1cc2c(cc1Cl)Oc1cc(Cl)c(Cl)cc1O2 [TCDD, 2,3,7,8-tetrachlorodibenzo-p-dioxin] | 2560 | 2370 | 2370 | 8.7 | 7.2 | –39% | 21.1 ± 30.0 | 12.9 ± 19.6 | 7.9 pg/g lipid | 1 |  |  | 
